PMC12724231, “APC24-7, a covalent combination of boronic acid and chelator moieties, restores β-lactam efficiency against metallo-β-lactamase-producers” (mSphere, 2025)
Where two headings read alike, the source gives them in different places.

Columns and labels:
Assay in all cases: microbe, parasite or virus in culture
[1] = system: T1, Klebsiella pneumoniae K46-62; design: species or system clinical isolates of E. coli and K. pneumoniae; Broth microdilution MIC (CLSI), cation-adjusted Mueller-Hinton broth, visual reading, antibiotic alone against clinical isolates; details: Klebsiella pneumoniae, K4662, antibiotic alone
T1 construct: K46-62
Method: (§1) MICs for clinical isolates were determined in a broth microdilution assay according to Clinical and Laboratory Standards Institute (CLSI) ([75]), using cation-adjusted Mueller-Hinton broth (Thermo Fisher Scientific, Lenexa, USA). The direct colony suspension method was utilized by preparing an inoculum of an OD600 0.17, except for E. coli #36 in which 0.10 was used, which equated to a concentration of 10^8 colony-forming units (CFU) per mL. Inoculum controls were included for all assays ([76]). MICs for all clinical isolates were determined alone and in combination with inhibitors for all BLs tested, either using manually prepared plates of aztreonam, cefepime, ceftazidime, and amoxicillin or premade plates of meropenem (Sensititre), and all antibiotics tested at a twofold increasing concentration of 0.03–64 mg/L (Table 1; Table S3). Compound APC24-7 was tested at a fixed concentration of 14, 28, and 57 µM (8, 16, or 32 mg/L) with meropenem, and for all other BLs tested at the highest inhibitor concentration to be able to compare the efficiency of the BI/BLI combinations. Taniborbactam was tested at a fixed equimolar concentration (6.5, 13, and 26 mg/L) and only evaluated with meropenem. A minimum of 2–3 replicates was performed for all combinations. Assay plates were incubated at 37°C without shaking for 16–20 h, and the results were visually interpreted in accordance with EUCAST guidelines and clinical breakpoint table version 15.0 (www.eucast.org).

[2] = system: T2, Klebsiella pneumoniae BAA-2146; design: species or system clinical isolates of E. coli and K. pneumoniae; Broth microdilution MIC (CLSI), cation-adjusted Mueller-Hinton broth, visual reading, antibiotic alone against clinical isolates; details: Klebsiella pneumoniae, BAA2146, antibiotic alone
T2 construct: ATCC BAA-2146
Method: as §1

Escherichia coli #29 = system: T3, Escherichia coli #29; design: species or system clinical isolates of E. coli and K. pneumoniae; Broth microdilution MIC (CLSI), cation-adjusted Mueller-Hinton broth, visual reading, antibiotic alone against clinical isolates; details: Escherichia coli, antibiotic alone
T3 construct: #29
Method: as §1

Escherichia coli #22 = system: T4, Escherichia coli #22; design: species or system clinical isolates of E. coli and K. pneumoniae; Broth microdilution MIC (CLSI), cation-adjusted Mueller-Hinton broth, visual reading, antibiotic alone against clinical isolates; details: Escherichia coli, antibiotic alone
T4 construct: #22
Method: as §1

[3] = system: T5, Klebsiella pneumoniae KresCPE0367; design: species or system clinical isolates of E. coli and K. pneumoniae; Broth microdilution MIC (CLSI), cation-adjusted Mueller-Hinton broth, visual reading, antibiotic alone against clinical isolates; details: Klebsiella pneumoniae, KRESCPE0367, antibiotic alone
T5 construct: KresCPE0367
Method: as §1

[4] = system: T6, Klebsiella pneumoniae BAA1705; design: species or system clinical isolates of E. coli and K. pneumoniae; Broth microdilution MIC (CLSI), cation-adjusted Mueller-Hinton broth, visual reading, antibiotic alone against clinical isolates; details: Klebsiella pneumoniae, BAA1705, antibiotic alone
T6 construct: ATCC BAA-1705
Method: as §1

[5] = system: T7, Klebsiella pneumoniae K66-45; design: species or system clinical isolates of E. coli and K. pneumoniae; Broth microdilution MIC (CLSI), cation-adjusted Mueller-Hinton broth, visual reading, antibiotic alone against clinical isolates; details: Klebsiella pneumoniae, K6645, antibiotic alone
T7 construct: K66-45
Method: as §1

[6] = system: T8, Klebsiella pneumoniae KresCPE0097; design: species or system clinical isolates of E. coli and K. pneumoniae; Broth microdilution MIC (CLSI), cation-adjusted Mueller-Hinton broth, visual reading, antibiotic alone against clinical isolates; details: Klebsiella pneumoniae, KRESCPE0097, antibiotic alone
T8 construct: KresCPE0097
Method: as §1

[7] = system: T9, Klebsiella pneumoniae KresCPE0353; design: species or system clinical isolates of E. coli and K. pneumoniae; Broth microdilution MIC (CLSI), cation-adjusted Mueller-Hinton broth, visual reading, antibiotic alone against clinical isolates; details: Klebsiella pneumoniae, KRESCPE0353, antibiotic alone
T9 construct: KresCPE0353
Method: as §1

[8] = system: T10, Klebsiella pneumoniae KresCPE0372; design: species or system clinical isolates of E. coli and K. pneumoniae; Broth microdilution MIC (CLSI), cation-adjusted Mueller-Hinton broth, visual reading, antibiotic alone against clinical isolates; details: Klebsiella pneumoniae, KRESCPE0372, antibiotic alone
T10 construct: KresCPE0372
Method: as §1

[9] = system: T11, Escherichia coli BAA-2469; design: species or system clinical isolates of E. coli and K. pneumoniae; Broth microdilution MIC (CLSI), cation-adjusted Mueller-Hinton broth, visual reading, antibiotic alone against clinical isolates; details: Escherichia coli, BAA2469, antibiotic alone
T11 construct: ATCC BAA-2469
Method: as §1

Escherichia coli #36 = system: T12, Escherichia coli #36; design: species or system clinical isolates of E. coli and K. pneumoniae; Broth microdilution MIC (CLSI), cation-adjusted Mueller-Hinton broth, visual reading, antibiotic alone against clinical isolates; details: Escherichia coli, antibiotic alone
T12 construct: #36
Method: as §1

Escherichia coli MP21-05 = system: T13, Escherichia coli MP21-05; design: species or system E. coli E. cloni 10G; Microdilution MIC of inhibitor alone in LB, OD600 read-out, E. coli 10G without or with empty vector; details: MP2105, inhibitor alone
T13 construct: MP21-05
Method: (§2) Susceptibility testing of isogenic E. coli E. cloni 10G (Table 2) was determined by both the microdilution assay. […] Overnight cultures were prepared in LB supplemented with 25 mg/L chloramphenicol at 37°C under shaking at 700 rpm. The overnight cultures were diluted in PBS to 10^6 CFU/ mL, followed by inoculation in LB to ~10^5 CFU in 384-well plates (VWR, Radnor, PA, USA). Plates were prepared with twofold increasing concentrations of meropenem and cefepime ([…], respectively) to a total inoculated volume of 100 µL Plates were incubated at 37°C without shaking for 19–21 h. OD600 was determined in a SpectraMax Plus plate reader (Molecular Devices).

Escherichia coli MP32-64 = system: T14, Escherichia coli MP32-64; design: species or system E. coli E. cloni 10G; Microdilution MIC of inhibitor alone in LB, OD600 read-out, E. coli 10G without or with empty vector; details: MP3264, inhibitor alone
T14 construct: MP32-64
Method: as §2

[10] = read-out: MIC AMX (mg/L) / AMX alone
[11] = read-out: MIC APC24-7 (μM) / Taniborbactam**
[12] = read-out: MIC APC24-7 (μM) / APC148*
[13] = read-out: MIC FEP (mg/L) / FEP alone
[14] = read-out: MIC AZT (mg/L) / AZT alone

CC1(C)S[C@@H]2[C@H](NC(=O)[C@H](N)c3ccc(O)cc3)C(=O)N2[C@H]1C(=O)O [amoxicillin]
MIC [1, 10]: > 64 mg/L
MIC [2, 10]: > 64 mg/L
MIC (Escherichia coli #29; [10]): > 64 mg/L
MIC (Escherichia coli #22; [10]): > 64 mg/L
MIC [3, 10]: > 64 mg/L
MIC [4, 10]: > 64 mg/L
MIC [5, 10]: > 64 mg/L
MIC [6, 10]: > 64 mg/L
MIC [7, 10]: > 64 mg/L
MIC [8, 10]: > 64 mg/L
MIC [9, 10]: > 64 mg/L
MIC (Escherichia coli #36; [10]): > 64 mg/L

NCCN[C@H]1CC[C@H](CC(=O)N[C@H]2Cc3cccc(C(=O)O)c3OB2O)CC1 [taniborbactam]
MIC (Escherichia coli MP21-05; [11]): > 906 µM
MIC (Escherichia coli MP32-64; [11]): > 906 µM

CN(C[C@H](O)[C@@H](O)[C@H](O)[C@H](O)CO)C(=O)c1ccc(CN(Cc2ccccn2)Cc2ccccn2)nc1 [APC148]
MIC (Escherichia coli MP21-05; [12]): > 906 µM
MIC (Escherichia coli MP32-64; [12]): > 906 µM

CO/N=C(\C(=O)N[C@@H]1C(=O)N2C(C(=O)[O-])=C(C[N+]3(C)CCCC3)CS[C@H]12)c1csc(N)n1 [cefepime]
MIC [1, 13]: > 64 mg/L
MIC [2, 13]: > 64 mg/L
MIC (Escherichia coli #29; [13]): > 64 mg/L
MIC (Escherichia coli #22; [13]): > 64 mg/L
MIC [3, 13]: > 64 mg/L
MIC [4, 13]: > 64 mg/L
MIC [5, 13]: > 64 mg/L
MIC [6, 13]: 16 mg/L
MIC [7, 13]: > 64 mg/L
MIC [8, 13]: > 64 mg/L
MIC [9, 13]: > 64 mg/L
MIC (Escherichia coli #36; [13]): > 64 mg/L

C[C@H]1[C@H](NC(=O)/C(=N\OC(C)(C)C(=O)O)c2csc(N)n2)C(=O)N1S(=O)(=O)O [aztreonam]
MIC [1, 14]: > 64 mg/L
MIC [2, 14]: > 64 mg/L
MIC (Escherichia coli #29; [14]): > 64 mg/L
MIC (Escherichia coli #22; [14]): > 64 mg/L
MIC [3, 14]: > 64 mg/L
MIC [4, 14]: > 64 mg/L
MIC [5, 14]: > 64 mg/L
MIC [6, 14]: 64 mg/L
MIC [7, 14]: > 64 mg/L
MIC [8, 14]: 32 mg/L
MIC [9, 14]: 16 mg/L
MIC (Escherichia coli #36; [14]): > 64 mg/L

CC(C)(O/N=C(\C(=O)N[C@@H]1C(=O)N2C(C(=O)[O-])=C(C[n+]3ccccc3)CS[C@H]12)c1csc(N)n1)C(=O)O [ceftazidime]
MIC ([1]; read-out: MIC): > 64 mg/L
MIC ([2]; read-out: MIC): > 64 mg/L
MIC (Escherichia coli #29; read-out: MIC): > 64 mg/L
MIC (Escherichia coli #22; read-out: MIC): > 64 mg/L
MIC ([3]; read-out: MIC): > 64 mg/L
MIC ([4]; read-out: MIC): > 64 mg/L
MIC ([5]; read-out: MIC): > 64 mg/L
MIC ([6]; read-out: MIC): 8 mg/L
MIC ([7]; read-out: MIC): > 64 mg/L
MIC ([8]; read-out: MIC): > 64 mg/L
MIC ([9]; read-out: MIC): > 64 mg/L
MIC (Escherichia coli #36; read-out: MIC): > 64 mg/L
